Laboratory results from patent EP3171885B1, “PEPTIDE HYDROLYSATE OF SNAILS, PEPTIDE FRACTIONS, PRODUCTION METHOD, USE AND COMPOSITIONS FOR INHIBITING THE ANGIOTENSIN CONVERTING ENZYME” (Drevet, Pascal, priority 2014, dated 2016).
Like-named read-outs stand apart in the source and are kept apart here. Where a SMILES comes first, the peptide text is derived from it.

Target: enzyme de conversion de l'angiotensine (ECA) (Homo sapiens, UniProt P12821)
Assay: biochemical
Procedure: Brièvement, cette méthode repose sur l'hydrolyse du substrat Hippuryl-L-Histidyl-L-Leucine (HHL) par l'ECA pour produire de l'acide hippurique (HA) et de l'Histydil-Leucine. Après incubation à 37°C pendant 30 minutes dans du tampon borate de sodium pH 8,3, la réaction est arrêtée par addition de HCI. La séparation du substrat HHL et du produit HA est réalisé par chromatographie liquide haute pression en phase inversée (RP-HPLC) sur une colonne C18 (Kinetex). L'élution se fait par un mélange d'eau (75% v/v) et d'acétonitrile (25% V/V).
La comparaison entre la concentration de HA produite pour chaque concentration d'échantillon avec celle obtenue sans addition de peptide permet la détermination de l'IC50.
A titre de témoin positif, le captopril est également testé en parallèle de l'hydrolysat, des fractions et des peptides. Le témoin négatif est le substrat HHL seul, sans ECA, dilué dans du tampon borate pH 8,3. L'échantillon est le peptide, la fraction ou l'hydrolysat total à tester.
Le pourcentage d'inhibition de l'ECA est calculé selon la formule suivante : Pourcentage d'inhibition ECA (%) = (ASCHA ([…])−ASCHA (Echantillon))/(ASCHA ([…])−ASCHA (HHL)) × 100 [formula]

[1] = substrate HHL 5 mM, 37°C, 30 minutes, sodium borate buffer pH 8,3, detection at 228 nm, read-out: IC50 (converted)

Chain of enzyme de conversion de l'angiotensine (ECA) (P12821 30-1306): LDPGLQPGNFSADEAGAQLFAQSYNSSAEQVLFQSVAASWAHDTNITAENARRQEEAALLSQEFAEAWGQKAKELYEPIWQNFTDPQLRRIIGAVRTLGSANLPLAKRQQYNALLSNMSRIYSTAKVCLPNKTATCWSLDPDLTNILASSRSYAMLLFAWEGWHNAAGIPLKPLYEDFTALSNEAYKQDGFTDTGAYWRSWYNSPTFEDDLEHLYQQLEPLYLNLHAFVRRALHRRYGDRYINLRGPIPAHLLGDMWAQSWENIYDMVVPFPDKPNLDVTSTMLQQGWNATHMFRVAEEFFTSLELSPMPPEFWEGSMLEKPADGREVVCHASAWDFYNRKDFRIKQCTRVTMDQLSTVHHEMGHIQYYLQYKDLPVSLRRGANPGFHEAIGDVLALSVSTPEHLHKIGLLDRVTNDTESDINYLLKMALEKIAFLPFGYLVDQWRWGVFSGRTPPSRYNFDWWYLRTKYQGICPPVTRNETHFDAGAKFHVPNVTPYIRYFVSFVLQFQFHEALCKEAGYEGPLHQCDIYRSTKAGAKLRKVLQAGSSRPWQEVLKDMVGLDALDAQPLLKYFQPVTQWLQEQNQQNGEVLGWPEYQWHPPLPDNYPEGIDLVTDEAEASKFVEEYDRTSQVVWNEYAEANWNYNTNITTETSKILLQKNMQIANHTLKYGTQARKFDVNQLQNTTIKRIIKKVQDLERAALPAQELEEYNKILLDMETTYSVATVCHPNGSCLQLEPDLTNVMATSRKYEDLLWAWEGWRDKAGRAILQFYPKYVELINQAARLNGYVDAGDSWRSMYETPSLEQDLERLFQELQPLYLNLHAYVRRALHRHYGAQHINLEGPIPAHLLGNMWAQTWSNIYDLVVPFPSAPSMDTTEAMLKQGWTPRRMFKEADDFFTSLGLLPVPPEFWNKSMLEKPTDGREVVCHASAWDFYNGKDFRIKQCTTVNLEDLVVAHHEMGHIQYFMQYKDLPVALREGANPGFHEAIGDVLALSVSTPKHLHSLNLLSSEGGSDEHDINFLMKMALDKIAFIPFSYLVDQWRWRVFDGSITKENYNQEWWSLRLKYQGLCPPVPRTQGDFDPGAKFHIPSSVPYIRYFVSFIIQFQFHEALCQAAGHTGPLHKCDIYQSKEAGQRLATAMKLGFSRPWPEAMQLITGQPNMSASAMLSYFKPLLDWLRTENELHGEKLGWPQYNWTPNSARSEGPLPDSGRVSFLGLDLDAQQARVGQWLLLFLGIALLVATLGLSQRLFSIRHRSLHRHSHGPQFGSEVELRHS

SMILES: N[C@@H](CC(=O)O)C(=O)N[C@@H](Cc1ccccc1)C(=O)O [DF, Acide Aspartique -Phénylalanine] (H-Asp-Phe-OH)
- IC50 [1]: 1280 µM

SMILES: N[C@@H](CO)C(=O)N[C@@H](Cc1ccccc1)C(=O)O [SF, Serine-Phénylalanine]
- IC50: 516 µM

SMILES: CC(C)[C@H](N)C(=O)N[C@@H](Cc1ccc(O)cc1)C(=O)O [VY, Valine-Tyrosine] (H-Val-Tyr-OH)
- IC50 [1]: 40.3 µM
